Data from ChEMBL document CHEMBL5252638, “Novel triphenylphosphonium amphiphilic conjugates of glycerolipid type: synthesis, cytotoxic and antibacterial activity, and targeted cancer cell delivery” (RSC Med Chem, 2023).
≈ marks a conversion by molar mass, not a printed value.

Legend:
Homo sapiens [1] = organism: Homo sapiens; test: Selectivity index, ratio of IC50 for human WI-38 cells to IC50 for human SK-OV-3 cells
M-HeLa = test: Cytotoxicity against human HelaM cells assessed as number of viable cells measured after 48 hrs by MTT based colorimetric assay; type: functional, cell-based
MCF7 = test: Cytotoxicity against human MCF7 cells assessed as number of viable cells measured after 48 hrs by MTT based colorimetric assay; type: functional, cell-based; conditions: MCF7, 48 h
HuTu80 = test: Cytotoxicity against human HuTu80 cells assessed as number of viable cells measured after 48 hrs by MTT based colorimetric assay; type: functional, cell-based; conditions: HuTu80, 48 h
PANC-1 = test: Cytotoxicity against human PANC-1 cells assessed as number of viable cells measured after 48 hrs by MTT based colorimetric assay; type: functional, cell-based; conditions: PANC-1, 48 h
A549 = test: Cytotoxicity against human A549 cells assessed as number of viable cells measured after 48 hrs by MTT based colorimetric assay; type: functional, cell-based; conditions: A549, 48 h
PC-3 = test: Cytotoxicity against human PC-3 cells assessed as number of viable cells measured after 48 hrs by MTT based colorimetric assay; type: functional, cell-based; conditions: PC-3, 48 h
T98G = test: Cytotoxicity against human T98G cells assessed as number of viable cells measured after 48 hrs by MTT based colorimetric assay; type: functional, cell-based
HepG2 = test: Cytotoxicity against human HepG2 cells assessed as number of viable cells measured after 48 hrs by MTT based colorimetric assay; type: functional, cell-based; conditions: HepG2, 48 h
SK-OV-3 = test: Cytotoxicity against human SK-OV-3 cells assessed as number of viable cells measured after 48 hrs by MTT based colorimetric assay; type: functional, cell-based; conditions: SK-OV-3, 48 h
DU-145 = test: Cytotoxicity against human DU-145 cells assessed as number of viable cells measured after 48 hrs by MTT based colorimetric assay; type: functional, cell-based; conditions: DU-145, 48 h
[2] = Cytotoxicity against human WI-38 cells assessed as number of viable cells measured after 48 hrs by MTT based colorimetric assay; type: toxicity, cell-based
[3] = Cytotoxicity against human Chang liver cells assessed as number of viable cells measured after 48 hrs by MTT based colorimetric assay; type: toxicity, cell-based
Homo sapiens [4] = organism: Homo sapiens; test: Selectivity index, ratio of IC50 for human WI-38 cells to IC50 for human HelaM cells
[5] = Selectivity index, ratio of IC50 for human WI-38 cells to IC50 for human MCF7 cells; type: toxicity; conditions: WI-38 cells and MCF7 cells, read-out: Ratio IC50
Homo sapiens [6] = organism: Homo sapiens; test: Selectivity index, ratio of IC50 for human WI-38 cells to IC50 for human HuTu80 cells
Homo sapiens [7] = organism: Homo sapiens; test: Selectivity index, ratio of IC50 for human WI-38 cells to IC50 for human PANC-1 cells
[8] = Selectivity index, ratio of IC50 for human WI-38 cells to IC50 for human PC-3 cells; type: toxicity; conditions: WI-38 cells and PC-3 cells, read-out: Ratio IC50
Homo sapiens [9] = organism: Homo sapiens; test: Selectivity index, ratio of IC50 for human Chang liver cells to IC50 for human DU-145 cells
Staphylococcus aureus [10] = test: Antimicrobial activity against Staphylococcus aureus ATCC 6538 P FDA 209P by serial microdilution method; type: functional
Bacillus cereus [11] = test: Antimicrobial activity against Bacillus cereus ATCC 10702 NCTC 8035 by serial microdilution method; type: functional
Escherichia coli [12] = test: Antimicrobial activity against Escherichia coli ATCC 25922 by serial microdilution method; type: functional
Staphylococcus aureus [13] = test: Bactericidal against Staphylococcus aureus ATCC 6538 P FDA 209P by serial microdilution method; type: functional
Enterococcus faecalis [14] = test: Bactericidal activity against Enterococcus faecalis ATCC 29212 by serial microdilution method; type: functional
Escherichia coli [15] = test: Bactericidal activity against Escherichia coli ATCC 25922 by serial microdilution method; type: functional
Homo sapiens [16] = organism: Homo sapiens; test: Selectivity index, ratio of IC50 for human Chang liver cells to IC50 for human MCF7 cells
Homo sapiens [17] = organism: Homo sapiens; test: Selectivity index, ratio of IC50 for human Chang liver cells to IC50 for human HuTu80 cells
Homo sapiens [18] = organism: Homo sapiens; test: Selectivity index, ratio of IC50 for human Chang liver cells to IC50 for human PC-3 cells
Homo sapiens [19] = organism: Homo sapiens; test: Selectivity index, ratio of IC50 for human Chang liver cells to IC50 for human SK-OV-3 cells
Enterococcus faecalis [20] = test: Antimicrobial activity against Enterococcus faecalis ATCC 29212 by serial microdilution method; type: functional
Bacillus cereus [21] = test: Bactericidal activity against Bacillus cereus ATCC 10702 NCTC 8035 by serial microdilution method; type: functional
Pseudomonas aeruginosa [22] = test: Antimicrobial activity against Pseudomonas aeruginosa ATCC 9027 by serial microdilution method; type: functional
Pseudomonas aeruginosa [23] = test: Bactericidal against Pseudomonas aeruginosa ATCC 9027 by serial microdilution method; type: functional

| Structure (SMILES) | IC50 (M-HeLa) | IC50 (MCF7) | IC50 (HuTu80) | IC50 (PANC-1) | IC50 (A549) | IC50 (PC-3) | IC50 (T98G) | IC50 (HepG2) | IC50 (SK-OV-3) | IC50 (DU-145) | IC50 at 48 h [2] | IC50 at 48 h [3] | Ratio IC50 (Homo sapiens [9]) | MIC (Staphylococcus aureus [10]) | MIC (Bacillus cereus [11]) | MIC (Escherichia coli [12]) | MBC (Staphylococcus aureus [13]) | MBC (Enterococcus faecalis [14]) | MBC (Escherichia coli [15]) | MIC (Enterococcus faecalis [20]) | other results |
| --- | --- | --- | --- | --- | --- | --- | --- | --- | --- | --- | --- | --- | --- | --- | --- | --- | --- | --- | --- | --- | --- |
| CCCCC/C=C\C/C=C\CCCCCCCC(=O)OC(COC(=O)CCCCCCC/C=C\CCCCCCCC)COC(=O)CCCC[P+](c1ccccc1)(c1ccccc1)c1ccccc1 (stereo unspecified) | 32.1 µM | 25.4 µM | 3.7 µM | 33.5 µM | 54.4 µM | 27.8 µM | 73.8 µM | 58.2 µM | 21 µM | 19.2 µM | 40 µM | 36 µM | 1.9 | 7.5 µM | 7.5 µM | 30 µM | 7.5 µM | 30 µM | 30 µM | – | Ratio IC50 (Homo sapiens [1]): 1.9; Ratio IC50 (Homo sapiens [4]): 1.2; selectivity ratio [5]: 1.6; Ratio IC50 (Homo sapiens [6]): 10.8; Ratio IC50 (Homo sapiens [7]): 1.2; selectivity ratio [8]: 1.4 |
| COc1cccc2c1C(=O)c1c(O)c3c(c(O)c1C2=O)C[C@@](O)(C(=O)CO)C[C@@H]3O[C@H]1C[C@H](N)[C@H](O)[C@H](C)O1 [DOXORUBICIN] | 2.1 µM | 0.4 µM | 0.2 µM | 2.2 µM | 0.7 µM | – | 1 µM | 0.2 µM | 6.7 µM | 0.3 µM | 0.4 µM | 0.5 µM | – | – | – | – | – | – | – | – | – |
| CCCCC/C=C\C/C=C\CCCCCCCC(=O)OCC(COC(=O)CCCC[P+](c1ccccc1)(c1ccccc1)c1ccccc1)OC(=O)CCCC[P+](c1ccccc1)(c1ccccc1)c1ccccc1 (stereo unspecified) | 53.8 µM | 24.7 µM | 9 µM | 46.7 µM | 70 µM | 40.3 µM | 51.7 µM | 64.5 µM | 39.4 µM | 29.4 µM | 41.1 µM | 45 µM | 1.5 | 3.2 µM | 6.4 µM | 6.4 µM | 3.2 µM | 51.2 µM | 12.8 µM | 12.8 µM | Ratio IC50 (Homo sapiens [16]): 1.8; Ratio IC50 (Homo sapiens [17]): 5; Ratio IC50 (Homo sapiens [18]): 1.1; Ratio IC50 (Homo sapiens [19]): 1.1; MBC (Bacillus cereus [21]): 500 µM |
| CCn1cc(C(=O)O)c(=O)c2cc(F)c(N3CCNCC3)cc21 [NORFLOXACIN] | – | – | – | – | – | – | – | – | – | – | – | – | – | 7.5 µM (≈ 2.4 µg/mL) | 24.4 µM (≈ 7.79 µg/mL) | 4.7 µM (≈ 1.5 µg/mL) | 7.5 µM (≈ 2.4 µg/mL) | 24.4 µM (≈ 7.79 µg/mL) | 24.4 µM (≈ 7.79 µg/mL) | 24.4 µM (≈ 7.79 µg/mL) | MIC (Pseudomonas aeruginosa [22]): 12.1 µM (≈ 3.86 µg/mL); MBC (Bacillus cereus [21]): 24.4 µM (≈ 7.79 µg/mL); MBC (Pseudomonas aeruginosa [23]): 49 µM (≈ 15.6 µg/mL) |
